Assay results as given in patent publication US11207312B2, “Metallo-beta-lactamase inhibitors and methods of use thereof” (priority 2017, dated 2021).
pIC50: −log10 of the molar value.

Assays:
[1] = system: Serratia marcescens expressing IMP-1 (CL5741); type: cell-based; settings: with imipenem 1 μg/ml; 95% inhibition of bacterial growth
In short: (§1)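 Colonies from sheep-blood agar plates are resuspended in saline, then diluted 1:100 in 1.1× CAMHB. Bacteria receive imipenem (1 μg/ml) and test compound, then incubate 22–24 h at 35 °C. Potentiation is reported as MITC95 from absorbance.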

[2] = system: Escherichia coli expressing NDM-1 (CLB30016); type: cell-based; settings: with imipenem 1 μg/ml; 95% inhibition of bacterial growth
In short: as §1

[3] = system: Klebsiella pneumoniae expressing VIM-1 (IHMA599644); type: cell-based; settings: with imipenem 1 μg/ml; 95% inhibition of bacterial growth
In short: as §1

[4] = system: P. aeruginosa MB9799 (efflux-, IMP-1 plasmid); type: cell-based, Pseudomonas aeruginosa; settings: efflux − (MB9799) strain; imipenem at 2 μg/mL; in the presence of a class A, C, D serine β-lactamase inhibitor closely related to relebactam
In short: (§2)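 PAO1-derived isogenic pair (oprD+, inducible AmpC), efflux+ MB5919 or efflux− MB5890 parent, carrying an electroporated IMP-1 plasmid from a clinical isolate. Microbroth MIC with fixed imipenem and/or ceftazidime (usually CLSI breakpoint) plus fixed class A/C inhibitor; MBL inhibitor serially titrated, concentration restoring susceptibility recorded.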

[5] = biological target: IMP-1 (Serratia marcescens, UniProt P52699); experiment: biochemical; settings: CCF2-FA fluorescence assay, 2 hours at 25° C.; read-out: IMP1 IC50
In short: (§3)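 In 100 mM phosphate pH 7 containing Tween-20 and ZnSO4, NDM-1 (1 pM), IMP-1 (2 pM) or VIM-1 (30 pM) hydrolysed 1.25 μM CCF2-FA over 2 hours at 25° C with inhibitor present. Readout was 405/460 nm fluorescence.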

[6] = biological target: VIM-1 (Pseudomonas aeruginosa (strain ATCC 15692 / DSM 22644 / CIP 104116 / JCM 14847 / LMG 12228 / 1C / PRS 101 / PAO1), UniProt A0A0F7KYQ8); experiment: biochemical; settings: CCF2-FA fluorescence assay, 2 hours at 25° C.; read-out: VIM1 IC50
In short: as §3

[7] = biological target: NDM-1 (Klebsiella pneumoniae, UniProt C7C422); experiment: biochemical; type: biochemical; settings: CCF2-FA fluorescence assay, 2 hours at 25° C.
In short: as §3

[8] = system: P. aeruginosa MB9798 (efflux+, IMP-1 plasmid); settings: for MB9798 MITC95 P. aeruginosa uM Efflux WT: efflux + (MB9798) strain, imipenem at 2 μg/mL, in the presence of a class A, C, D serine β-lactamase inhibitor closely related to relebactam; for Efflux ratio: fold difference between efflux+ (MB9798) and efflux− (MB9799) strains
In short: as §2

[9] = biological target: VIM-2 (Escherichia coli, UniProt Q5U7L7); experiment: biochemical; settings: CCF2-FA fluorescence assay; read-out: VIM2 IC50

Chain of IMP-1 (P52699 whole entry, looked up, species assumed): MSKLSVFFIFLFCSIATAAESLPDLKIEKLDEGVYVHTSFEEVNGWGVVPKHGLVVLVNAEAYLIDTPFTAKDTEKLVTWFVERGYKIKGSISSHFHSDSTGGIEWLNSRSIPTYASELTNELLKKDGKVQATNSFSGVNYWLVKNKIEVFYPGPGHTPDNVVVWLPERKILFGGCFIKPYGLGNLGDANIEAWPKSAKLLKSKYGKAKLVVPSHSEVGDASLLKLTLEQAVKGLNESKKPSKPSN
Chain of NDM-1 (C7C422 whole entry, looked up, species assumed): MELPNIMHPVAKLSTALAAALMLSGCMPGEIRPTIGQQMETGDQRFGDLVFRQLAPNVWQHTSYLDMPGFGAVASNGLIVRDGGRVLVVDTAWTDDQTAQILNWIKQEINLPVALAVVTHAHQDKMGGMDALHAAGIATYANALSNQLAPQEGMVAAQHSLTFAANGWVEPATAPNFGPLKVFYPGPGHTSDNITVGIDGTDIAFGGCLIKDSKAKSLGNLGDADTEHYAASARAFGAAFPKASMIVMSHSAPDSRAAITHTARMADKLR

With NC1CCN(c2ccc(S(=O)(=O)N[C@@H]3CCNC3)c(S(N)(=O)=O)c2-c2nn[nH]n2)C(=O)C1 (stereo partly drawn) [Example 158, 4-(4-amino-2-oxopiperidin-1-yl)-N1-((R)-pyrrolidin-3-yl)-3-(2H-tetrazol-5-yl)benzene-1,2-disulfonamide] the “CL5741 S. marcescens MITC95 IMP” value [1] was 1.56 µM, the “CLB30016 E. coli MITC95 NDM” value [2] was 0.10 µM and the “IHMA599644 K. pneumoniae MITC95 VIM” value [3] was 0.78 µM. The “MB9799 MITC95 P. aeruginosa uM Efflux Mutant” value [4] was 3.13 µM, the pIC50 [5] was 7.05 and the pIC50 [6] was 8.91. For the same molecule, the pIC50 [7] was 8.14, the “MB9798 MITC95 P. aeruginosa uM Efflux WT” value [8] was 6.25 µM and the Efflux ratio [8] was 2.00. The pIC50 [9] was 7.64.
NS(=O)(=O)c1c(S(=O)(=O)N[C@@H]2CCNC2)ccc(N2CCC(O)CC2=O)c1-c1nn[nH]n1 (stereo partly drawn) [Example 159, 4-(4-hydroxy-2-oxopiperidin-1-yl)-N1-((R)-pyrrolidin-3-yl)-3-(2H-tetrazol-5-yl)benzene-1,2-disulfonamide] was tested, and the “CL5741 S. marcescens MITC95 IMP” value [1] was 0.78 µM, the “CLB30016 E. coli MITC95 NDM” value [2] was 1.56 µM and the “IHMA599644 K. pneumoniae MITC95 VIM” value [3] was 6.25 µM. The “MB9799 MITC95 P. aeruginosa uM Efflux Mutant” value [4] was 1.56 µM, the pIC50 [5] was 7.80 and the pIC50 [6] was 9.42. For the same molecule, the pIC50 [7] was 9.21, the “MB9798 MITC95 P. aeruginosa uM Efflux WT” value [8] was 6.25 µM and the Efflux ratio [8] was 4.00. The pIC50 [9] was 8.58.
For NC[C@@H](O)CNS(=O)(=O)c1ccc(N2CCN(C(CO)CO)CC2)c(-c2nn[nH]n2)c1S(N)(=O)=O [Example 160, (R)-N1-(3-amino-2-hydroxypropyl)-4-(4-(1,3-dihydroxypropan-2-yl)piperazin-1-yl)-3-(2H-tetrazol-5-yl)benzene-1,2-disulfonamide], the “CL5741 S. marcescens MITC95 IMP” value [1] was 0.20 µM, the “CLB30016 E. coli MITC95 NDM” value [2] was 0.78 µM and the “IHMA599644 K. pneumoniae MITC95 VIM” value [3] was 1.56 µM. The “MB9799 MITC95 P. aeruginosa uM Efflux Mutant” value [4] was 1.56 µM, the pIC50 [5] was 8.92 and the pIC50 [6] was 8.87. For the same molecule, the pIC50 [7] was 8.94, the “MB9798 MITC95 P. aeruginosa uM Efflux WT” value [8] was 1.56 µM and the Efflux ratio [8] was 1.00. It also gave a pIC50 [9] of 8.26.
For NC[C@@H](O)CNS(=O)(=O)c1ccc(N2C[C@H]3CNC[C@H]3C2)c(-c2nn[nH]n2)c1S(N)(=O)=O [Example 161, N1-((R)-3-amino-2-hydroxypropyl)-4-((3aR,6aS)-hexahydropyrrolo[3,4-c]pyrrol-2(1H)-yl)-3-(2H-tetrazol-5-yl)benzene-1,2-disulfonamide], the “CL5741 S. marcescens MITC95 IMP” value [1] was 3.13 µM, the “CLB30016 E. coli MITC95 NDM” value [2] was 1.56 µM and the “IHMA599644 K. pneumoniae MITC95 VIM” value [3] was 1.56 µM. For the same molecule, the “MB9799 MITC95 P. aeruginosa uM Efflux Mutant” value [4] was 6.25 µM, the pIC50 [5] was 7.34 and the pIC50 [6] was 9.05. For the same molecule, the pIC50 [7] was 7.91, the “MB9798 MITC95 P. aeruginosa uM Efflux WT” value [8] was 12.50 µM and the Efflux ratio [8] was 2.00. For the same molecule, the pIC50 [9] was 7.83.
With NS(=O)(=O)c1c(S(=O)(=O)N[C@@H]2CCNC2)ccc(N2CCN(CCO)CC2)c1-c1nn[nH]n1 [Example 162, (R)-4-(4-(2-hydroxyethyl)piperazin-1-yl)-N1-(pyrrolidin-3-yl)-3-(2H-tetrazol-5-yl)benzene-1,2-disulfonamide] the “CL5741 S. marcescens MITC95 IMP” value [1] was 0.20 µM, the “CLB30016 E. coli MITC95 NDM” value [2] was 0.29 µM and the “IHMA599644 K. pneumoniae MITC95 VIM” value [3] was 1.95 µM. For the same molecule, the “MB9799 MITC95 P. aeruginosa uM Efflux Mutant” value [4] was 1.17 µM, the pIC50 [5] was 8.66 and the pIC50 [6] was 8.61. For the same molecule, the pIC50 [7] was 8.92, the “MB9798 MITC95 P. aeruginosa uM Efflux WT” value [8] was 2.34 µM and the pIC50 [9] was 8.20.
COC(=O)C1CCN(c2ccc(S(=O)(=O)N[C@@H]3CCNC3)c(S(N)(=O)=O)c2-c2nn[nH]n2)CCN1.Cl (stereo partly drawn) [Example 164, Methyl 1-(4-(N-((R)-pyrrolidin-3-yl)sulfamoyl)-3-sulfamoyl-2-(2H-tetrazol-5-yl)phenyl)-1,4-diazepane-5-carboxylate hydrochloride] was tested, and the “CL5741 S. marcescens MITC95 IMP” value [1] was 1.56 µM, the “CLB30016 E. coli MITC95 NDM” value [2] was 0.39 µM and the “IHMA599644 K. pneumoniae MITC95 VIM” value [3] was 3.13 µM. For the same molecule, the “MB9799 MITC95 P. aeruginosa uM Efflux Mutant” value [4] was 3.13 µM, the pIC50 [5] was 9.27 and the pIC50 [6] was 9.92. For the same molecule, the pIC50 [7] was 9.20, the “MB9798 MITC95 P. aeruginosa uM Efflux WT” value [8] was 6.25 µM and the Efflux ratio [8] was 2.00. It also gave a pIC50 [9] of 9.16.
NC(=O)C1CCN(c2ccc(S(=O)(=O)N[C@@H]3CCNC3)c(S(N)(=O)=O)c2-c2nn[nH]n2)CCN1 (stereo partly drawn) [Example 165, 1-(4-(N-((R)-pyrrolidin-3-yl)sulfamoyl)-3-sulfamoyl-2-(2H-tetrazol-5-yl)phenyl)-1,4-diazepane-5-carboxamide] was tested, and the “CL5741 S. marcescens MITC95 IMP” value [1] was 0.20 µM, the “CLB30016 E. coli MITC95 NDM” value [2] was 0.20 µM and the “IHMA599644 K. pneumoniae MITC95 VIM” value [3] was 1.56 µM. For the same molecule, the “MB9799 MITC95 P. aeruginosa uM Efflux Mutant” value [4] was 0.78 µM, the pIC50 [5] was 8.61 and the pIC50 [6] was 9.42. The pIC50 [7] was 8.92, the “MB9798 MITC95 P. aeruginosa uM Efflux WT” value [8] was 1.56 µM and the Efflux ratio [8] was 2.00. For the same molecule, the pIC50 [9] was 8.63.
For NS(=O)(=O)c1c(S(=O)(=O)N[C@@H]2CCNC2)ccc(N2CCC(c3c[nH]cn3)CC2)c1-c1nn[nH]n1 [Example 166, (R)-4-(4-(1H-imidazol-4-yl)piperidin-1-yl)-N1-(pyrrolidin-3-yl)-3-(2H-tetrazol-5-yl)benzene-1,2-disulfonamide], the “CL5741 S. marcescens MITC95 IMP” value [1] was 0.78 µM, the “CLB30016 E. coli MITC95 NDM” value [2] was 0.78 µM and the “IHMA599644 K. pneumoniae MITC95 VIM” value [3] was 1.56 µM. The “MB9799 MITC95 P. aeruginosa uM Efflux Mutant” value [4] was 0.78 µM, the pIC50 [5] was 9.66 and the pIC50 [6] was 10.05. For the same molecule, the pIC50 [7] was 9.92, the “MB9798 MITC95 P. aeruginosa uM Efflux WT” value [8] was 0.78 µM and the Efflux ratio [8] was 1.00. It also gave a pIC50 [9] of 9.28.
For NCCNS(=O)(=O)C1CCN(c2ccc(S(=O)(=O)N[C@@H]3CCNC3)c(S(N)(=O)=O)c2-c2nn[nH]n2)CC1 [Example 167, (R)-4-(4-(N-(2-aminoethyl)sulfamoyl)piperidin-1-yl)-N1-(pyrrolidin-3-yl)-3-(2H-tetrazol-5-yl)benzene-1,2-disulfonamide], the “CL5741 S. marcescens MITC95 IMP” value [1] was 1.17 µM, the “CLB30016 E. coli MITC95 NDM” value [2] was 1.17 µM and the “IHMA599644 K. pneumoniae MITC95 VIM” value [3] was 1.56 µM. The “MB9799 MITC95 P. aeruginosa uM Efflux Mutant” value [4] was 0.78 µM, the pIC50 [5] was 9.60 and the pIC50 [6] was 10.30. The pIC50 [7] was 9.60, the “MB9798 MITC95 P. aeruginosa uM Efflux WT” value [8] was 0.78 µM and the Efflux ratio [8] was 1.00. The pIC50 [9] was 9.40.
In the case of NC[C@H](N)CNS(=O)(=O)c1ccc(N2CCC(c3c[nH]cn3)CC2)c(-c2nn[nH]n2)c1S(N)(=O)=O [Example 168, (S)-4-(4-(1H-imidazol-4-yl)piperidin-1-yl)-N1-(2,3-diaminopropyl)-3-(2H-tetrazol-5-yl)benzene-1,2-disulfonamide], the “CL5741 S. marcescens MITC95 IMP” value [1] was 0.78 µM, the “CLB30016 E. coli MITC95 NDM” value [2] was 0.39 µM and the “IHMA599644 K. pneumoniae MITC95 VIM” value [3] was 1.56 µM. For the same molecule, the “MB9799 MITC95 P. aeruginosa uM Efflux Mutant” value [4] was 0.78 µM, the pIC50 [5] was 9.62 and the pIC50 [6] was 10.15. The pIC50 [7] was 9.77, the “MB9798 MITC95 P. aeruginosa uM Efflux WT” value [8] was 1.56 µM and the Efflux ratio [8] was 2.00. For the same molecule, the pIC50 [9] was 9.32.
NC[C@@H](O)CNS(=O)(=O)c1ccc(N2CCC(c3c[nH]cn3)CC2)c(-c2nnn[nH]2)c1S(N)(=O)=O [Example 169, (R)-4-(4-(1H-imidazol-4-yl)piperidin-1-yl)-N1-(3-amino-2-hydroxypropyl)-3-(1H-tetrazol-5-yl)benzene-1,2-disulfonamide] was tested, and the “CL5741 S. marcescens MITC95 IMP” value [1] was 1.17 µM, the “CLB30016 E. coli MITC95 NDM” value [2] was 0.39 µM and the “IHMA599644 K. pneumoniae MITC95 VIM” value [3] was 2.34 µM. The “MB9799 MITC95 P. aeruginosa uM Efflux Mutant” value [4] was 0.78 µM, the pIC50 [5] was 9.59 and the pIC50 [6] was 10.00. The pIC50 [7] was 9.64, the “MB9798 MITC95 P. aeruginosa uM Efflux WT” value [8] was 0.78 µM and the Efflux ratio [8] was 1.00. The pIC50 [9] was 9.40.
NCC1=CCN(c2ccc(S(=O)(=O)NC[C@H](O)CN)c(S(N)(=O)=O)c2-c2nn[nH]n2)C1.O=C(O)C(F)(F)F.O=C(O)C(F)(F)F [Example 170] was tested, and the “CL5741 S. marcescens MITC95 IMP” value [1] was 1.56 µM, the “CLB30016 E. coli MITC95 NDM” value [2] was 1.56 µM and the “IHMA599644 K. pneumoniae MITC95 VIM” value [3] was 1.56 µM. The “MB9799 MITC95 P. aeruginosa uM Efflux Mutant” value [4] was 1.56 µM, the pIC50 [5] was 7.81 and the pIC50 [6] was 8.25. The pIC50 [7] was 7.94, the “MB9798 MITC95 P. aeruginosa uM Efflux WT” value [8] was 6.25 µM and the Efflux ratio [8] was 4.00. For the same molecule, the pIC50 [9] was 7.37.
